Assay results as given in US6348456B1, “Method of treating chemical dependency in mammals and a composition therefor” (priority 1994, dated 2002).

Assay: plasma concentration of ibogaine and its metabolite 12-hydroxy ibogamine over time after ibogaine administration to a human patient
Assay type: in vivo
Procedure: An amount of ibogaine was administered to a human patient, and the plasma concentration of both ibogaine and a metabolite thereof, 12-hydroxy ibogamine, were observed as a function of time.
FIG. 1 illustrates the result of administering a certain dosage of ibogaine to a human patient, where the plasma concentration of ibogaine is measured over time. In essence, a peak plasma concentration of about 1,100 ng/ml is observed at administration. It is also notable that at about 11 hours after ibogaine administration, plasma concentration of ibogaine diminished to less than 400 ng/ml. After about 24 hours, plasma concentration diminished to less than 200 ng/ml. Thus, ibogaine is rather quickly eliminated by the patient.
By contrast, FIG. 2 illustrates the variation of noribogaine plasma concentration with time as a metabolite from the same ibogaine administration described above. In essence, a peak plasma concentration of noribogaine of about 590 ng/ml was reached only after about 11 hours from administration. Thereafter, even at 24 hours, a plasma concentration of greater than 500 ng/ml was observed.

Row | SMILES | plasma concentration of ibogaine (after about 24 hours) | plasma concentration of ibogaine (at about 11 hours after ibogaine administration) | peak plasma concentration of ibogaine (ibogaine administered, (FIG. 1)) | plasma half-life compared with ibogaine (after ibogaine administration) | plasma concentration of noribogaine (at 24 hours, metabolite after ibogaine administration) | time from administration to peak plasma concentration of noribogaine (noribogaine as metabolite after ibogaine administration) | peak plasma concentration of noribogaine (noribogaine as metabolite from the same ibogaine administration (FIG. 2))
1 | CC[C@H]1CC2C[C@H]3c4[nH]c5ccc(OC)cc5c4CCN(C2)C13 [ibogaine, reference compound] | less than 200 ng/ml | less than 400 ng/ml | about 1,100 ng/ml | – | – | – | –
2 | CC[C@H]1C[C@H]2C[C@H]3c4[nH]c5ccc(O)cc5c4CCN(C2)[C@@H]13 [noribogaine, 12-hydroxy ibogamine] | – | – | – | much longer plasma half-life than ibogaine | greater than 500 ng/ml | about 11 hours | about 590 ng/ml
